For assay [1], the target named is T1, mouse TREX1 (Mus musculus, UniProt Q91XB0).
T1 construct: N-terminally His-Tev tagged full length mouse TREX1; made in house; host or cells: E. coli
T1 sequence (Q91XB0 1-314): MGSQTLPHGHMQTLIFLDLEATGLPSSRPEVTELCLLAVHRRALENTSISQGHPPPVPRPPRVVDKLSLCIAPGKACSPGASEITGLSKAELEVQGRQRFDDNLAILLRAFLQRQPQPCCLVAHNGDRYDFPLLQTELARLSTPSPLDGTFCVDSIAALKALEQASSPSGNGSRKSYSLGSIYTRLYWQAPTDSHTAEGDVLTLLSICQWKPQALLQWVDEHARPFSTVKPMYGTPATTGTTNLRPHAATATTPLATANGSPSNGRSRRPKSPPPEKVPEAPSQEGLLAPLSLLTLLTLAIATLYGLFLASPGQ
Kind of assay: mTREX1 Biochemical Assay (fluorescence, dsDNA substrate degradation). To be noted: full length mouse TREX1, 4 h pre-incubation, 18 h reaction at 25° C. In outline:
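Full-length His-Tev mouse TREX1 (E. coli) was preincubated with compound 4 h at 25 °C, then run 18 h at 25 °C. Finals were 6 pM enzyme, 60 nM TEX615/quencher dsDNA, 1% DMSO, pH 7.4 Tris with 5 mM MgCl2. After EDTA quench, fluorescence was read at 615 nm; IC50 by four-parameter fit against EDTA and no-inhibitor controls.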

Assay [2] addresses T2, human TREX1 (Homo sapiens, UniProt Q9NSU2).
T2 construct: N-terminally His-Tev tagged full length human TREX1; made in house; host or cells: E. coli
T2 sequence (Q9NSU2 1-314): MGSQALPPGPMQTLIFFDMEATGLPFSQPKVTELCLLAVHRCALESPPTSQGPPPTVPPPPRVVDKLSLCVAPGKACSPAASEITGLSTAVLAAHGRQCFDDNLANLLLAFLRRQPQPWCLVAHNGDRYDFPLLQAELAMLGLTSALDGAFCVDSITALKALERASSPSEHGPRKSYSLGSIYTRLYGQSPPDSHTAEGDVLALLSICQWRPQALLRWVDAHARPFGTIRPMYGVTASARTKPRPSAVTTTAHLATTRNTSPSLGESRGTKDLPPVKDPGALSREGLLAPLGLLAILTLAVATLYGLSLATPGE
Kind of assay: TREX1 kinetics assays (TR-FRET association and dissociation with biotinylated probe). The assay is classed as binding. To be noted: for koff / kon: hTREX1, 25° C., global fit Kintek Explorer; for Kd / residence time: hTREX1, kinetic data. As for the experimental part: Compound binding kinetics were assessed using a pair of TR-FRET assays which measure the proportion of protein bound to a biotinylated TREX1 inhibitor (“probe”).
N-terminally His-Tev tagged full length human TREX1 (expressed in E. coli and purified in house), complexed with Eu-W 1024-anti-6×His (“Eu”; PerkinElmer) in reaction buffer (50 mM Tris, 150 mM NaCl, 2 mM DTT, 0.1 mg/mL BSA, 0.01% (w/v) Tween-20, 5 mM MgCl2, pH 7.4) was combined with an equal volume of test compound in reaction buffer and incubated at 25° C. Concentrations at this stage were 1 nM TREX1/Eu complex, and four concentrations of compound (diluted from 10 mM stocks in 100% DMSO). At defined time points, 18 μL of this mixture was withdrawn and combined with 2 p L probe to a final concentration of 1 μM probe. After incubating for 30 seconds, 18 μL was withdrawn and combined with 2 μL streptavidin-allophycocyanin (“SA-APC”; PerkinElmer) to a final concentration of 1.5 μM SA-APC. Fifteen μL of this mixture was then immediately transferred to a 384-well Black ProxiPlate Plus (PerkinElmer) and read in an EnVision plate reader (PerkinElmer) measuring fluorescence at 615 nm and 665 nm following excitation w/337 nm laser light. Final concentrations were 0.8 nM TREX1/Eu complex, 0.9 μM probe, and 1.5 μM SA-APC.
N-terminally His-Tev tagged full length human TREX1 (expressed in E. coli and purified in house), complexed with Eu-W1024-anti-6×His (“Eu”; PerkinElmer) in reaction buffer (50 mM Tris, 150 mM NaCl, 2 mM DTT, 0.1 mg/mL BSA, 0.01% (w/v) Tween-20, 5 mM MgCl2, pH 7.4) was combined with an equal volume of test compound in reaction buffer. Concentrations at this stage were 100 nM TREX1/Eu complex and 100 nM test compound (diluted from 10 mM stocks in 100% DMSO). Following an equilibration period of at least an hour at 25° C., this mixture was diluted 100-fold into reaction buffer containing 1 μM probe, and incubated at 25° C. At defined time points, 36 μL of the reaction mixture was withdrawn and combined with 4 μL streptavidin-allophycocyanin (“SA-APC”; PerkinElmer) to a final concentration of 1.5 μM SA-APC. Fifteen μL of this mixture was then immediately transferred to duplicate wells of a 384-well Black ProxiPlate Plus (PerkinElmer) and read in an EnVision plate reader (PerkinElmer) measuring fluorescence at 615 nm and 665 nm following excitation w/ 337 nm laser light.
The TR-FRET signal, a ratio of 665 nm/615 nm emitted light, was converted to fraction enzyme bound to test compound by normalizing to low signal (no enzyme or test compound) and high signal (no test compound) controls. Data from both association and dissociation experiments were fitted globally using Kintek Explorer software, which computes the rate constants directly.
For orientation: Time-resolved FRET reads energy transfer from a long-lived donor to a nearby acceptor.

15 molecules from patent US20240262814A1, “MODULATORS OF TREX1” (Constellation Pharmaceuticals, Inc., priority 2021, published 2024) can be followed below.

In the case of `Cn1c([C@H](C(c2ccccc2)c2ccccc2)C(F)(F)F)nc(C(=O)Nc2cnoc2)c(O)c1=O` (single isomer, unassigned) [Example 20 Isomer 1, 5-Hydroxy-N-(isoxazol-4-yl)-1-methyl-6-oxo-2-(1,1,1-trifluoro-3,3-diphenylpropan-2-yl)-1,6-dihydropyrimidine-4-carboxamide], the IC50 – broadly, the point on the concentration scale where inhibition reaches its midpoint – in assay [1] was over 10 nM.
Regarding `CC(c1nc(C(=O)Nc2cnoc2)c(O)c(=O)n1C)C(c1ccccc1Cl)c1ccccc1C#N` (single isomer, unassigned) [Example 10 Isomer 1], in assay [2], the koff (in general, the rate constant with which the complex falls apart) was 3.15e-05 s⁻¹; the kon (commonly the rate constant with which the complex forms) is 448000 M⁻¹ s⁻¹; binding was characterised by a dissociation constant (Kd) of 0.07 nM; the residence time (commonly how long the partners stay bound on average) was 529 min. For the same molecule, the IC50 in assay [1] is under 1 nM.
For the molecule `CC(c1nc(C(=O)Nc2cnoc2)c(O)c(=O)n1C)C(c1ccccc1)c1ccccc1` (single isomer, unassigned) [Example 1 Isomer 1, 2-(1,1-diphenylpropan-2-yl)-5-hydroxy-N-(isoxazol-4-yl)-1-methyl-6-oxo-1,6-dihydro pyrimidine-4-carboxamide], the IC50 in assay [1] is over 10 nM.
Regarding `C[C@H](c1nc(C(=O)Nc2cnoc2)c(O)c(=O)n1C)[C@H](c1ccccc1)c1ccccc1Cl` (single isomer, unassigned) [Example 2 Isomer 3, 2-(1-(2-chlorophenyl)-1-phenylpropan-2-yl)-5-hydroxy-N-(isoxazol-4-yl)-1-methyl-6-oxo-1,6-dihydropyrimidine-4-carboxamide], in assay [2], the koff was 5.48e-05 s⁻¹; the on-rate (kon) is 159000 M⁻¹ s⁻¹; the Kd (as a rule, the concentration at which binding is half-saturated) amounted to 0.345 nM; the residence time amounted to 304 min. Moreover, the IC50 in assay [1] is 1 to 10 nM.
In assay [1], `Cn1c([C@@H](C(c2ccccc2C#N)c2ccccc2C#N)C(F)(F)F)nc(C(=O)Nc2cnoc2)c(O)c1=O` (single isomer, unassigned) [Example 21 Isomer 1, 2-(3,3-bis(2-cyanophenyl)-1,1,1-trifluoropropan-2-yl)-5-hydroxy-N-(isoxazol-4-yl)-1-methyl-6-oxo-1,6-dihydropyrimidine-4-carboxamide] had an IC50 of 1 to 10 nM.
On the same count and under the same terms, next, `CC(c1nc(C(=O)Nc2cnoc2)c(O)c(=O)n1C)C(c1ccccc1)c1cc(C(=O)N(C)C)ccc1C#N` (single isomer, unassigned) [Example 17 Isomer 3]: 1 to 10 nM.
In assay [2], `CC(c1nc(C(=O)Nc2cnoc2)c(O)c(=O)n1C)C(c1ccccc1C#N)c1ccccc1C#N` (single isomer, unassigned) [Example 4 Isomer 2] gave a koff of 3.83e-05 s⁻¹, a kon of 907000 M⁻¹ s⁻¹, a Kd of 0.042 nM and a residence time of 435 min. In assay [1], this molecule displayed an IC50 of under 1 nM.
The matching figures for `CC(c1nc(C(=O)Nc2cnoc2)c(O)c(=O)n1C)C(c1ccccc1)c1ccc(Cl)cc1C#N` (single isomer, unassigned) [Example 9 Isomer 4]: 2.07e-05 s⁻¹, 178000 M⁻¹ s⁻¹, 0.116 nM, 806 min and under 1 nM.
In assay [1], `C[C@H](c1nc(C(=O)Nc2cnoc2)c(O)c(=O)n1C)[C@H](c1ccccc1)c1ccccc1C(F)(F)F` (single isomer, unassigned) [Example 14 Isomer 2, 5-Hydroxy-N-(isoxazol-4-yl)-1-methyl-6-oxo-2-(1-phenyl-1-(2-(trifluoromethyl)phenyl)propan-2-yl)-1,6-dihydropyrimidine-4-carboxamide] came in with an IC50 of over 10 nM.
With `CC(c1nc(C(=O)Nc2cnoc2)c(O)c(=O)n1C)C(c1cc(F)cc(F)c1)c1ccccc1C#N` (single isomer, unassigned) [Example 11 Isomer 3], in assay [2], the koff was 1.92e-05 s⁻¹, the kon was 257000 M⁻¹ s⁻¹, the Kd came to 0.075 nM and the residence time came out at 870 min. This molecule also had an IC50 in assay [1] of under 1 nM.
The matching figures for `CC(c1nc(C(=O)Nc2cnoc2)c(O)c(=O)n1C)C(c1ccccc1)c1ccccc1` (single isomer, unassigned) [Example 1 Isomer 2, 2-(1,1-diphenylpropan-2-yl)-5-hydroxy-N-(isoxazol-4-yl)-1-methyl-6-oxo-1,6-dihydro pyrimidine-4-carboxamide]: 0.000192 s⁻¹, 50300 M⁻¹ s⁻¹, 3.8 nM, 87 min and over 10 nM.
In assay [2], `CC(c1nc(C(=O)Nc2cnoc2)c(O)c(=O)n1C)C(c1ccccc1)c1ccccc1C#N` (single isomer, unassigned) [Example 3 Isomer 4] showed a koff of 3.6e-05 s⁻¹, a kon of 164000 M⁻¹ s⁻¹, a Kd of 0.219 nM and a residence time of 463 min. Besides, the IC50 in assay [1] was 1 to 10 nM.
With `CC(c1nc(C(=O)Nc2cnoc2)c(O)c(=O)n1C)C(c1ccccc1)c1cc(F)ccc1C#N` (single isomer, unassigned) [Example 6 Isomer 4], in assay [2], the koff was 3.37e-05 s⁻¹, the kon is 173000 M⁻¹ s⁻¹, the Kd came out at 0.194 nM and the residence time came out at 495 min. In assay [1], this molecule displayed an IC50 of 1 to 10 nM.
The matching figures for `C[C@H](c1nc(C(=O)Nc2cnoc2)c(O)c(=O)n1C)C(c1ccccc1Cl)c1ccccc1Cl` (single isomer, unassigned) [Example 15 Isomer 1, 2-(1,1-bis(2-chlorophenyl)propan-2-yl)-5-hydroxy-N-(isooxazol-4-yl)-1-methyl-6-oxo-1,6-dihydropyrimidine-4-carboxamide]: 4.77e-05 s⁻¹, 260000 M⁻¹ s⁻¹, 0.183 nM, 350 min and under 1 nM.
The matching figures for `CC(c1nc(C(=O)Nc2cnoc2)c(O)c(=O)n1C)C(c1ccccc1)c1cc(Cl)ccc1C#N` (single isomer, unassigned) [Example 8 Isomer 2]: 4.17e-05 s⁻¹, 116000 M⁻¹ s⁻¹, 0.361 nM, 400 min and 1 to 10 nM.
